The record followed here is patent publication US8058475B2, “Substituted cyclohexylmethyl compounds” (Gruenenthal GmbH, priority 2005, dated 2011).

As usually defined, the inhibition is the relative decrease from the control value, in per cent. The Ki is a measure of affinity in units of concentration, obtained from inhibition or displacement.

SMILES strings stand for the structures.

The target of the assay is human μ-opiate receptor (Homo sapiens, UniProt P35372). Put plainly: Affinity for the human μ-opiate receptor ([3H]-naloxone displacement, SPA, CHO-K1 membrane preparation). The class given is binding. The note with it: for inhibition at 1 µM: read-out: μ-Opioid receptor, % inhibition [1 μM]; for Ki: read-out: μ-Opioid receptor, Ki.
Chain of human μ-opiate receptor (P35372 whole entry): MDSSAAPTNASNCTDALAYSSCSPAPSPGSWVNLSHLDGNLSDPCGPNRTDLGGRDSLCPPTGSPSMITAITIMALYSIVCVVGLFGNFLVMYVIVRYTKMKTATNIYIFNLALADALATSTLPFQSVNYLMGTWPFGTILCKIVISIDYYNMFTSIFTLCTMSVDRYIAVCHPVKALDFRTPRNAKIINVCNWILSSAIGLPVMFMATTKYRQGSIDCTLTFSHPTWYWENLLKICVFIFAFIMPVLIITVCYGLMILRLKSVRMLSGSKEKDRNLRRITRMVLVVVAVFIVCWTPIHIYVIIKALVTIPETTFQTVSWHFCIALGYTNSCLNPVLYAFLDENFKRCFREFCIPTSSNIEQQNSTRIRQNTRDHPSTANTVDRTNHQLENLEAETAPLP

As to `CN(C)C(c1ccccc1)C1CCC(NC(=O)c2ccc(C(C)(C)C)cc2)CC1` (centres unmarked) [compound 217, 4-tert-butyl-N-[4-(dimethylamino-phenyl-methyl)-cyclohexyl]-benzamide], the inhibition at 1 µM was 90% and the Ki turned out to be 62 nM.

`CN(C)C(c1cccs1)C1CCC(CNC(=O)c2ccccc2Br)CC1` (centres unmarked) [compound 296, 2-bromo-N-[4-(dimethylamino-thiophen-2-yl-methyl)-cyclohexylmethyl]-benzamide]: the inhibition at 1 µM is 100% and the Ki stood at 0.3 nM.

With `COc1c(C(=O)NC2CCC(C(c3cccs3)N(C)C)CC2)csc1Cl` (centres unmarked) [compound 195, 5-chloro-4-methoxy-thiophene-3-carboxylic acid [4-(dimethylamino-thiophen-2-yl-methyl)-cyclohexyl]-amide], the inhibition at 1 µM was found to be 96% and the inhibitory constant (Ki) worked out at 15 nM.

In the case of `CN(C)C(c1ccccc1)C1CCC(NC(=O)c2cccc(Cl)c2)CC1` (centres unmarked) [compound 187, 3-chloro-N-[4-(dimethylamino-phenyl-methyl)-cyclohexyl]-benzamide], the inhibition at 1 µM came to 100% and the Ki came to 8.5 nM.

Regarding `Cc1ccccc1C(=O)NCC1CCC(C(c2cccc(F)c2)N(C)C)CC1` (centres unmarked) [compound 384, N-{4-[dimethylamino-(3-fluoro-phenyl)-methyl]-cyclohexylmethyl}-2-methyl-benzamide], the inhibition at 1 µM amounted to 82% and the Ki came to 38 nM.

For `COc1c(C(=O)NCC2CCC(C(c3ccccc3)N(C)C)CC2)csc1Cl` (centres unmarked) [compound 293, 5-chloro-4-methoxy-thiophene-3-carboxylic acid [4-(dimethylamino-phenyl-methyl)-cyclohexylmethyl]-amide], the inhibition at 1 µM turned out to be 102% and the Ki came to 4.6 nM.

For `COc1c(C(=O)NCCC2CCC(C(c3ccccc3)N(C)C)CC2)csc1Cl` (centres unmarked) [compound 474, 5-chloro-4-methoxy-thiophene-3-carboxylic acid {2-[4-(dimethylamino-phenyl-methyl)-cyclohexyl]-ethyl}-amide], the inhibition at 1 µM came out at 100% and the Ki amounted to 2.7 nM.

Take `CN(C)C(c1ccccc1)C1CCC(CCNC(=O)c2ccc(F)c(F)c2)CC1` (centres unmarked) [compound 444, N-{2-[4-(dimethylamino-phenyl-methyl)-cyclohexyl]-ethyl}-3,4-difluoro-benzamide]: the inhibition at 1 µM came to 101% and the Ki amounted to 11 nM.

On to `CN(C)C(c1ccccc1)C1CCC(NC(=O)CC(C)(C)C)CC1` (single isomer, unassigned) [compound 228, N-[4-(dimethylamino-phenyl-methyl)-cyclohexyl]-3,3-dimethyl-butyramide], for which the inhibition at 1 µM came out at 87% and the Ki amounted to 19 nM.

Turning to `CN(C)C(c1cccc(F)c1)C1CCC(NC(=O)c2ccc(-c3ccccn3)s2)CC1` (centres unmarked) [compound 267, 5-pyridin-2-yl-thiophene-2-carboxylic acid {4-[dimethylamino-(3-fluoro-phenyl)-methyl]-cyclohexyl}-amide], the inhibition at 1 µM amounted to 77% and the Ki was determined as 150 nM.

With `CN(C)C(c1ccccc1)C1CCC(CCNC(=O)c2ccccc2F)CC1` (centres unmarked) [compound 410, N-{2-[4-(dimethylamino-phenyl-methyl)-cyclohexyl]-ethyl}-2-fluoro-benzamide], the inhibition at 1 µM is 88% and the Ki came to 5.8 nM.

Turning to `CN(C)C(c1cccc(F)c1)C1CCC(CCNC(=O)c2cc(F)c(Cl)cc2Cl)CC1` (single isomer, unassigned) [compound 438, 2,4-dichloro-N-(2-{4-[dimethylamino-(3-fluoro-phenyl)-methyl]-cyclohexyl}-ethyl)-5-fluoro-benzamide], the inhibition at 1 µM is 87% and the Ki was determined as 100 nM.

Regarding `Cc1oc(-c2ccccc2)cc1C(=O)NC1CCC(C(c2cccc(F)c2)N(C)C)CC1` (centres unmarked) [compound 266, 2-methyl-5-phenyl-furan-3-carboxylic acid {4-[dimethylamino-(3-fluoro-phenyl)-methyl]-cyclohexyl}-amide], the inhibition at 1 µM was determined as 78% and the Ki is 36 nM.
